Test results taken from patent US20170042151A1, “SAFENED HERBICIDAL COMPOSITIONS COMPRISING PYRIDINE CARBOXYLIC ACIDS” (Dow AgroSciences LLC, priority 2015, published 2017).

Key:
Assay type in all cases: in vivo
[1] = tested on: HORVS = Hordeum vulgare (spring barley); experiment: Greenhouse post-emergence phytotoxicity (% visual injury) on spring barley
Experimental: (§1) In addition, the efficacy of the herbicidal composition on wild mustard (SINAR), wild chamomile (MATCH), wild pansy (VIOTR), shepherd's purse ([…]), pigweed (AMARE), and Canada thistle (CIRAR) was evaluated. […] When required to ensure good germination and healthy plants, a fungicide treatment and/or other chemical or physical treatment was applied. The plants were grown for 7-36 days (d) in a greenhouse with an approximate 14-hour (h) photoperiod which was maintained at about 18° C. during the day and 17° C. during the night. Nutrients and water were added on a regular basis and supplemental lighting was provided with overhead metal halide 1000-Watt lamps as necessary. The plants were employed for testing when they reached the second or third true leaf stage. Weighed amounts of technical material were dissolved in a volume of 97:3 volume per volume (v/v) acetone/dimethyl sulfoxide (DMSO) to stock solutions. […] Stock solutions of the safeners were prepared following the same procedure. […] Control plants were sprayed in the same manner with the solvent blank. The treated plants and control plants were placed in a greenhouse as described above and watered by sub-irrigation to prevent wash-off of the test compounds. […] Colby's equation was used to determine the herbicidal effects expected from the mixtures.

[2] = tested on: TRZAW = Triticum aestivum (winter wheat); experiment: Greenhouse post-emergence phytotoxicity (% visual injury) on wheat
Experimental: as §1

[3] = tested on: SINAR = Sinapis arvensis (wild mustard); experiment: Greenhouse post-emergence efficacy (% visual injury) on wild mustard; details: 20-22 d
Experimental: (§2) The herbicide of formula I-G-A was combined with isoxadifen-ethyl or mefenpyr-diethyl, and applied to spring wheat (TRZAS) and spring barley (HORVS) and the phytotoxicity of the herbicidal composition was measured. In addition, the efficacy of the herbicidal composition on wild mustard (SINAR), wild chamomile (MATCH), wild pansy (VIOTR), shepherd's purse (CAPBP), kochia (KCHSC), lambsquarters (CHEAL), pigweed (AMARE), and Canada thistle (CIRAR) was evaluated. The results for herbicide I-G-A with isoxadifen-ethyl and mefenpyr-diethyl are summarized in Table 7 and Table 8, respectively.
(§3) Seeds of the desired test plant species were planted in Sun Gro MetroMix® 360 planting mixture, which typically has a pH of 6.0 to 6.8 and an organic matter content of about 30 percent, in plastic pots with a surface area of 103.2 square centimeters (cm^2). When required to ensure good germination and healthy plants, a fungicide treatment and/or other chemical or physical treatment was applied. The plants were grown for 7-36 days (d) in a greenhouse with an approximate 14-hour (h) photoperiod which was maintained at about 18° C. during the day and 17° C. during the night. Nutrients and water were added on a regular basis and supplemental lighting was provided with overhead metal halide 1000-Watt lamps as necessary. The plants were employed for testing when they reached the second or third true leaf stage.
(§4) Weighed amounts of technical material were dissolved in a volume of 97:3 volume per volume (v/v) acetone/dimethyl sulfoxide (DMSO) to stock solutions. […] Compound requirements are based upon a 12 milliliter (mL) application volume at a rate of 187 liters per hectare (L/ha). Stock solutions of the safeners were prepared following the same procedure. Spray solutions of the safeners and experimental compound mixtures were prepared by adding the stock solutions to the appropriate amount of dilution solution to form a 12 mL spray solution in two-way combinations. Formulated compounds were applied to the plant material with an overhead Mandel track sprayer equipped with 8002E nozzles calibrated to deliver 187 L/ha over an application area of 0.503 square meters (m^2) at a spray height of 18 inches (43 centimeters (cm)) above average plant canopy. Control plants were sprayed in the same manner with the solvent blank.
(§5) The treated plants and control plants were placed in a greenhouse as described above and watered by sub-irrigation to prevent wash-off of the test compounds. After 20-22 d, the condition of the test plants as compared with that of the control plants was determined visually and scored on a scale of 0 to 100 percent where 0 corresponds to no injury and 100 corresponds to complete kill. Colby's equation was used to determine the herbicidal effects expected from the mixtures.

[4] = tested on: CHEAL = Chenopodium album (lambsquarters); experiment: Greenhouse post-emergence efficacy (% visual injury) on lambsquarters; details: 20-22 d
Experimental: as §2, §3, §4, §5

[5] = tested on: MATCH = Matricaria recutita (wild chamomile); experiment: Greenhouse post-emergence efficacy (% visual injury) on wild chamomile; details: 20-22 d
Experimental: as §2, §3, §4, §5

[6] = tested on: KCHSC = Kochia scoparia (kochia); experiment: Greenhouse post-emergence efficacy (% visual injury) on kochia; details: 20-22 d
Experimental: as §2, §3, §4, §5

[7] = tested on: CIRAR = Cirsium arvense (Canada thistle); experiment: Greenhouse post-emergence efficacy (% visual injury) on Canada thistle; details: 20-22 d
Experimental: as §2, §3, §4, §5

[8] = tested on: CAPBP = Capsella bursa-pastoris (shepherd's purse); experiment: Greenhouse post-emergence efficacy (% visual injury) on shepherd's purse; details: 20-22 d
Experimental: as §2, §3, §4, §5

[9] = tested on: AMARE = Amaranthus retroflexus (pigweed); experiment: Greenhouse post-emergence efficacy (% visual injury) on pigweed; details: 20-22 d
Experimental: as §2, §3, §4, §5

[10] = tested on: VIOTR = Viola tricolor (wild pansy); experiment: Greenhouse post-emergence efficacy (% visual injury) on wild pansy; details: 20-22 d
Experimental: as §2, §3, §4, §5

[11] = safener 20 g ai/ha alone, 20-22 d
[12] = safener 40 g ai/ha alone, 20-22 d
[13] = safener 80 g ai/ha alone, 20-22 d
[14] = herbicide 20 g ae/ha alone, 20-22 d

Compound: CC1COc2ccccc2N1C(=O)C(Cl)Cl (racemic) [benoxacor, (±)-4-(dichloroacetyl)-3,4-dihydro-3-methyl-2H-1,4-benzoxazine]
- Effect (% visual injury) HORVS Obs ([1]; in vivo): 0%
- Effect (% visual injury) TRZAW Obs ([2]; in vivo): 0%

Compound: CCOC(=O)C1=NN(c2ccc(Cl)cc2Cl)C(C)(C(=O)OCC)C1 (racemic) [mefenpyr-diethyl, (RS)-1-(2,4-dichlorophenyl)-5-methyl-2-pyrazoline-3,5-dicarboxylate]
- Effect (% visual injury) SINAR Obs ([3]; safener 20 g ai/ha alone): 0%
- Effect (% visual injury) SINAR Obs ([3]; safener 40 g ai/ha alone): 0%
- Effect (% visual injury) SINAR Obs ([3]; safener 80 g ai/ha alone): 0%
- Effect (% visual injury) CHEAL Obs ([4]; safener 20 g ai/ha alone): 0%
- Effect (% visual injury) CHEAL Obs ([4]; safener 40 g ai/ha alone): 0%
- Effect (% visual injury) CHEAL Obs ([4]; safener 80 g ai/ha alone): 0%
- Effect (% visual injury) MATCH Obs ([5]; safener 20 g ai/ha alone): 0%
- Effect (% visual injury) MATCH Obs ([5]; safener 40 g ai/ha alone): 0%
- Effect (% visual injury) MATCH Obs ([5]; safener 80 g ai/ha alone): 0%
- Effect (% visual injury) KCHSC Obs ([6]; safener 20 g ai/ha alone): 0%
- Effect (% visual injury) KCHSC Obs ([6]; safener 40 g ai/ha alone): 0%
- Effect (% visual injury) KCHSC Obs ([6]; safener 80 g ai/ha alone): 0%
- Effect (% visual injury) HORVS Obs [1, 11]: 0%
- Effect (% visual injury) HORVS Obs [1, 12]: 0%
- Effect (% visual injury) HORVS Obs [1, 13]: 0%
- Effect (% visual injury) TRZAW Obs [2, 11]: 0%
- Effect (% visual injury) TRZAW Obs [2, 12]: 0%
- Effect (% visual injury) TRZAW Obs [2, 13]: 0%
- Effect (% visual injury) CIRAR Obs ([7]; safener 20 g ai/ha alone): 0%
- Effect (% visual injury) CIRAR Obs ([7]; safener 40 g ai/ha alone): 0%
- Effect (% visual injury) CIRAR Obs ([7]; safener 80 g ai/ha alone): 0%
- Effect (% visual injury) CAPBP Obs ([8]; safener 20 g ai/ha alone): 0%
- Effect (% visual injury) CAPBP Obs ([8]; safener 40 g ai/ha alone): 0%
- Effect (% visual injury) CAPBP Obs ([8]; safener 80 g ai/ha alone): 0%
- Effect (% visual injury) AMARE Obs ([9]; safener 20 g ai/ha alone): 0%
- Effect (% visual injury) AMARE Obs ([9]; safener 40 g ai/ha alone): 0%
- Effect (% visual injury) AMARE Obs ([9]; safener 80 g ai/ha alone): 0%
- Effect (% visual injury) VIOTR Obs ([10]; safener 20 g ai/ha alone): 0%
- Effect (% visual injury) VIOTR Obs ([10]; safener 40 g ai/ha alone): 0%
- Effect (% visual injury) VIOTR Obs ([10]; safener 80 g ai/ha alone): 0%

Compound: NC(=O)NS(=O)(=O)c1ccccc1Cl [2-CBSU, N-(aminocarbonyl)-2-chlorobenzenesulfonamide]
- Effect (% visual injury) HORVS Obs ([1]; in vivo): 0%
- Effect (% visual injury) TRZAW Obs ([2]; in vivo): 0%

Compound: CCc1nc(C(=O)O)c(Cl)c(N)c1F [I-G-A]
- Effect (% visual injury) SINAR Obs ([3]; herbicide 20 g ae/ha alone): 97%
- Effect (% visual injury) CHEAL Obs ([4]; herbicide 20 g ae/ha alone): 95%
- Effect (% visual injury) MATCH Obs ([5]; herbicide 20 g ae/ha alone): 80%
- Effect (% visual injury) KCHSC Obs ([6]; herbicide 20 g ae/ha alone): 20%
- Effect (% visual injury) HORVS Obs [1, 14]: 13%
- Effect (% visual injury) TRZAW Obs [2, 14]: 25%
- Effect (% visual injury) CIRAR Obs ([7]; herbicide 20 g ae/ha alone): 80%
- Effect (% visual injury) CAPBP Obs ([8]; herbicide 20 g ae/ha alone): 100%
- Effect (% visual injury) AMARE Obs ([9]; herbicide 20 g ae/ha alone): 20%
- Effect (% visual injury) VIOTR Obs ([10]; herbicide 20 g ae/ha alone): 60%

Compound: C=CCN(CC=C)C(=O)C(Cl)Cl [dichlormid, N,N-diallyl-2,2-dichloroacetamide]
- Effect (% visual injury) HORVS Obs [1, 11]: 0%
- Effect (% visual injury) HORVS Obs [1, 12]: 0%
- Effect (% visual injury) HORVS Obs [1, 13]: 0%
- Effect (% visual injury) TRZAW Obs [2, 11]: 0%
- Effect (% visual injury) TRZAW Obs [2, 12]: 0%
- Effect (% visual injury) TRZAW Obs [2, 13]: 0%

Compound: O=C(O)c1nc(C(Cl)(Cl)Cl)n(-c2ccc(Cl)cc2Cl)n1 [fenchlorazole, 1-(2,4-dichlorophenyl)-5-(trichloromethyl)-1H-1,2,4-triazole-3-carboxylic acid]
- Effect (% visual injury) HORVS Obs [1, 11]: 0%
- Effect (% visual injury) HORVS Obs [1, 12]: 0%
- Effect (% visual injury) HORVS Obs [1, 13]: 0%
- Effect (% visual injury) TRZAW Obs [2, 11]: 0%
- Effect (% visual injury) TRZAW Obs [2, 12]: 0%
- Effect (% visual injury) TRZAW Obs [2, 13]: 0%

Compound: Clc1cc(Cl)nc(-c2ccccc2)n1 [fenclorim, 4,6-dichloro-2-phenylpyrimidine]
- Effect (% visual injury) HORVS Obs ([1]; in vivo): 0%
- Effect (% visual injury) TRZAW Obs ([2]; in vivo): 0%

Compound: O=C1OC(=O)c2cccc3cccc1c23 [naphthalic anhydride]
- Effect (% visual injury) HORVS Obs ([1]; in vivo): 0%
- Effect (% visual injury) TRZAW Obs ([2]; in vivo): 0%
